Residues, ends and D or L forms follow the SMILES beside them.

Assay [1] has as its system Guinea pig hearts. Description: Example 14: ischemia-reperfusion-induced myocardial stunning. Here is the method: Guinea pig hearts will be rapidly isolated, and the aorta will be cannulated in situ and perfused in a retrograde fashion with an oxygenated Krebs-Henseleit at constant pressure (40 cm H2O). Contractile force will be measured with a small hook inserted into the apex of the left ventricle and a silk ligature connected to a force-displacement transducer. Coronary flow will be measured by timing the collection of pulmonary artery effluent.
Hearts will be perfused with peptide conjugates (1-100 nM); aromatic-cationic peptides (an equivalent molar dose of aromatic-cationic peptide based on the concentration of the aromatic-cationic peptide administered in the peptide conjugate treatment group); SPN10(s) (an equivalent molar dose of SPN10 based on the concentration of SPN10 administered in the peptide conjugate treatment group); or SPN10(s) in combination with aromatic-cationic peptides (e.g., an equivalent molar dose of SPN10 based on the concentration of SPN10 administered in the peptide conjugate treatment group and an equivalent molar dose of aromatic-cationic peptide based on the concentration of aromatic-cationic peptide administered in the peptide conjugate treatment group) for 30 minutes and then subjected to 30 minutes of global ischemia. Reperfusion will […] be performed using perfusion buffer lacking both peptide conjugates and SPN10(s) (with or without aromatic-cationic peptides).

The subject of assay [2] is Hairless mice. Description: Example 50: sunburn by excessive UV radiation. In kind it is in vivo, mouse. Conditions: intravenously twice per day for seven days. The text has this: Hairless mice, with skin characteristics similar to humans, will be exposed to excessive UV radiation over the course of a week. […] Parameters measured will include wound contraction, re-epithelialization distance, cellularity, and collagen organization. Ki67 proliferation antigen will be assessed, as well as TUNEL and caspase-3 activation. Blood flow will be measured by […] mapping.

The test system of assay [3] is New Zealand white rabbits. The experiment in a line: Acute myocardial infarction injury in a rabbit model. The class given is in vivo. Conditions: IV infusion, 30-minute ischemia, 3 hours post-reperfusion. Here is the method:
New Zealand white rabbits will be used in this study. The rabbits will be males and >10 weeks in age. Environmental controls in the animal rooms will be set to maintain temperatures of 61° to 72° F. and relative humidity between 30% and 70%. Room temperature and humidity will be recorded hourly, and monitored daily. There will be approximately 10-15 air exchanges per hour in the animal rooms. Photoperiod will be 12-hr light/12-hr dark (via fluorescent lighting) with exceptions as necessary to accommodate dosing and data collection. Routine daily observations will be performed. Harlan Teklad, Certified Diet (2030C), rabbit diet will be provided approximately 180 grams per day from arrival to the facility. In addition, fresh fruits and vegetables will be given to the rabbit 3 times a week. […]
In all cases, treatments will be started approximately 30 minutes after the onset of a 30-minute ischemic insult (coronary occlusion) and continued for up to 3 hours following reperfusion. In all cases, cardiovascular function will be monitored both prior to and during ischemia, as well as for up to 180 minutes (3 hours) post-reperfusion. The experiments will be terminated 3 hours post-reperfusion (end of study); irreversible myocardial injury (infarct size by histomorphometery) at this time-point will be evaluated, and will be the primary-end-point of the study.

With `N=C(N)NCCC[C@H](NC(=O)[C@@H](N)Cc1c[nH]c2ccccc12)C(=O)N[C@@H](Cc1c[nH]c2ccccc12)C(=O)N[C@@H](CCCCN)C(N)=O` [SPN10, H-L-Trp-L-Arg-L-Trp-L-Lys-NH2] (H-WRWK-NH2), in assay [1], the cardiac stunning entry was “complete inhibition of cardiac stunning”, the “coronary flow during reperfusion” value is on record as “well-sustained throughout the reperfusion period” and the heart rate entry is “no decrease in heart rate”. Moreover, the “contractile force during the reperfusion period” value in assay [1] (30 minutes perfusion, 30 minutes global ischemia) was “improved compared to untreated controls”. Also, the “wound healing and progression of sunburn injuries” value in assay [2] was “accelerate wound healing and attenuate the progression of sunburn injuries”. The “infarct size compared to the vehicle control group” value in assay [3] is on record as “decreased infarct size”.

For the origin of these results see US20240108740A1, “THERAPEUTIC COMPOSITIONS INCLUDING SPN10 AND USES THEREOF” (Stealth BioTherapeutics Inc., priority 2022, published 2024).
